13 compounds from US12630511B2, “Benzamide derivative, preparation method therefor, and pharmaceutical composition comprising same as active ingredient for prevention or treatment of cancer” (KOREA RESEARCH INSTITUTE OF CHEMICAL TECHNOLOGY, priority 2019, dated 2026) can be followed below.

For orientation: pIC50 means the negative decadic logarithm of the IC50, by convention in mol/L. Read a high pIC50 as a small IC50.

The subject of assay [1] is Ba/F3 L858R/T790M/C797S (LTC) cells. The experiment in a line: Anticancer activity in BaF3 cells overexpressing EGFR L858R/T790M/C797S (CellTiter-Glo), alone or combined with cetuximab. It is filed as cell-based. Particulars: cells overexpressed with EGFR L858R/T790M/C797S; combined with cetuximab; 72 hours; FIG. 1 and FIG. 2. On the procedure:
(§1) Experimental Example 2: Evaluation of Anticancer Activity in BaF3 Cells Overexpressed with Various EGFR Mutations
(§2) In order to confirm that the compound represented by formula 1 according to the present invention acted as an allosteric inhibitor against EGFR wild-type and mutants, the inhibitory effect on EGFR wild-type and mutants in Ba/F3 cell line was evaluated. In addition, in order to evaluate the cellular activity when the compound according to the present invention was co-administered with an existing drug, the cellular activity according to the combined administration was evaluated using Cetuximab used alone or in combination with chemotherapy in metastatic colorectal cancer and metastatic squamous head and neck cancer.
(§3) Particularly, the activity of the compound of the present invention against the wild-type and mutant Ba/F3 EGFR cell lines was measured as follows using the CellTiter-Glo system of Promega. […]
(§4) BaF3 cells were aliquoted in a 96 well cell culture plate at the density of 2500 cells/50 ul per well, to which 50 ul of the compound represented by formula 1 was treated at the concentrations of 0, 0.03, 0.1, 0.3, and 1 μM. […] Finally, the ratio of the fluorescence values at 570 nm was quantitatively measured using a luminometer, and the ability of the compound to inhibit cell viability was confirmed. […]

Assay [2] concerns Ba/F3 EGFR L858R/T790M (LT) cells. In words: Anticancer activity in BaF3 cells overexpressing EGFR L858R/T790M (CellTiter-Glo), alone or combined with cetuximab. It is filed as cell-based. Particulars: cells overexpressed with EGFR L858R/T790M; combined with cetuximab; 72 hours; FIG. 1 and FIG. 2. On the procedure:
as §1, §2, §3, §4

Assay [3] deals with T1, EGFR L858R/T790M/C797S mutant enzyme (Homo sapiens, UniProt P00533, C797S/L858R/T790M).
T1 construct: purchased SignalChem
In words: Inhibitory capacity against EGFR L858R/T790M/C797S mutant enzyme (Cisbio HTRF). It is filed as biochemical. The note with it: for pIC50: HTRF, 1 mM ATP, 37° C. for 2 hours, 7 concentrations. On the procedure:
Experimental Example 1: Measurement of Inhibitory Capacity Against EGFR L858R/T790M/C797S
In order to confirm the inhibitory capacity of the compounds prepared in Examples 1 to 13 provided in one aspect of the present invention against EGFR mutation, the following experiment was performed.
Particularly, the activity of the compounds of the present invention against EGFR mutant enzyme was measured using the HTRF system of Cisbio Co. As an EGFR L858R/T790M/C797S mutant enzyme, a protein provided by SignalChem was purchased and used as an enzyme source.
The composition of the assay buffer used for the activity measurement was as follows: 50 mM Tris-HCl (pH 7.5), 100 mM NaCl, 7.5 mM MgCl2, 3 mM KCl, 0.01% Tween 20, 0.1% BSA, and 1 mM DTT. Herein, an enzyme reaction was performed using a peptide substrate labeled with ATP at the concentration of 1 mM and biotin at the concentration of 0.5 μM. The analysis of the EGFR activity inhibitory effect of the compounds was performed according to the following analytical reaction recipe. • Component 1: 4 μl of EGFR mutant enzyme • Component 2: 2 μl of compound solution • Component 3: 4 μl of ATP and biotin-labeled peptide mixture
The enzyme reaction was initiated by mixing the component 1 and the component 2 first and then adding the component 3 thereto. After reacting the mixture at 37° C. for 2 hours, 10 μl of a measurement solution consisting of streptavidin-XL665 and europium-labeled anti-phosphotyrosine antibody provided by Cisbio was added to the enzyme reaction solution, followed by reaction at room temperature for 1 hour. Finally, the ratio of the fluorescence values at 615 nm and 665 nm was calculated using Envision equipment of Perkin-Elmer to quantitatively measure the enzyme activity and confirm the inhibitory ability of the compounds. The values measured at 7 concentrations of the compound were analyzed using Prism program (version 5.01, Graphpad Software, Inc.), and the IC50 value, an index of the inhibitory ability of the compound, was calculated.

Structures are written as SMILES. pIC50: −log10 of the molar value. A value given as a limit tells only on which side of the number the result lay.

T1 sequence (P00533 25-1210 T790M/C797S/L858R): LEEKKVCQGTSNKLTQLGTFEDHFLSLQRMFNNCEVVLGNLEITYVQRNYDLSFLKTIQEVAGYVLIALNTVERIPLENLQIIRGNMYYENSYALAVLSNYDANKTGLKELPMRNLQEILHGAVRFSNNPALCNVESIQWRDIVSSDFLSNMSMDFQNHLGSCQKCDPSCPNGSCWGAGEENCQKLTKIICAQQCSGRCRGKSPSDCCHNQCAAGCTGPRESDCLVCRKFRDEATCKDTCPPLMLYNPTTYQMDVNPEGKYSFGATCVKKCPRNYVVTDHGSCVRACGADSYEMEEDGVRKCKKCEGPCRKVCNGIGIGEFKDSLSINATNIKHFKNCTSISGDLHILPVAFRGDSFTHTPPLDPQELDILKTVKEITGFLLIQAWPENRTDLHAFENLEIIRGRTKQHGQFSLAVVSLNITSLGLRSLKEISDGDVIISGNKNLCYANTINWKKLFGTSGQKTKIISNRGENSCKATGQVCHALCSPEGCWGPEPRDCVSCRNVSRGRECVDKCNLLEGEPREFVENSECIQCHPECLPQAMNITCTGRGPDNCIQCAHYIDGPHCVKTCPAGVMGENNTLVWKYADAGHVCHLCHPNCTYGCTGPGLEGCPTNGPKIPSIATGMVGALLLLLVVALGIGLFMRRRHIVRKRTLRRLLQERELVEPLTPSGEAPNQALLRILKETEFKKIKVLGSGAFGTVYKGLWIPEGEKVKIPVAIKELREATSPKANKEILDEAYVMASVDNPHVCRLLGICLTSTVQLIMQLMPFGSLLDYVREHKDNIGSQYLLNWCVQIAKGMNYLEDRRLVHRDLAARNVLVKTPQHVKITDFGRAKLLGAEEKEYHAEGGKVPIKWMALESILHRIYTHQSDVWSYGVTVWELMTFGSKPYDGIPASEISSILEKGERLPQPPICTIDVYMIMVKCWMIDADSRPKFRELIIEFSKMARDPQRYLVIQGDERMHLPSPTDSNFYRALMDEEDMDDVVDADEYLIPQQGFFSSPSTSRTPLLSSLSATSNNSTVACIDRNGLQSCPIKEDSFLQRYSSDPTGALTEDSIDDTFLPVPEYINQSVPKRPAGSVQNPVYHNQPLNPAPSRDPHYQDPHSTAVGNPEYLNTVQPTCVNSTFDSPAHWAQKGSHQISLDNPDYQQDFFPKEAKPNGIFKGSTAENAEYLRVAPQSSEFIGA

With `NC1CCN(c2ccc(-c3cccc(C(=O)N[C@@H](c4cc5ccccc5[nH]4)c4cc(F)ccc4O)c3)cc2)CC1` [Example 3, (R)-4′-(4-aminopiperidine-1-yl)-N-((5-fluoro-2-hydroxyphenyl)(1H-indole-2-yl)methyl)-[1,1′-biphenyl]-3-carboxamide], the “anticancer activity in combination with cetuximab (cell viability relative to cetuximab only)” value in assay [1] and in assay [2] was “synergistic anticancer activity” throughout. This compound gave a negative-log IC50 (pIC50) in assay [3] of 8.15. In assay [3] (summary of Table 2), the “inhibitory capacity against EGFR L858R/T790M/C797S mutation (in words)” value is reported as “excellent inhibitory capacity”.

On to `O=C(N[C@@H](c1cc2ccccc2[nH]1)c1cc(F)ccc1O)c1cccc(-c2ccc(N3CCN(C4CCNCC4)CC3)cc2)c1` [Example 8, (R)—N-((5-fluoro-2-hydroxyphenyl)(1H-indole-2-yl)methyl)-4′-(4-(piperidine-4-yl)piperazine-1-yl)-[1,1′-biphenyl]-3-carboxamide], for which the pIC50 in assay [3] is 6.85.

Regarding `O=C(N[C@@H](c1cc2ccccc2[nH]1)c1cc(F)ccc1O)c1cccc(-c2ccc(N3CCNCC3)cc2)c1` [Example 1, (R)—N-((5-fluoro-2-hydroxyphenyl)(1H-indole-2-yl)methyl)-4′-(piperazine-1-yl)-[1,1′-biphenyl]-3-carboxamide], the pIC50 in assay [3] was 7.34.

`CC(=O)N1CCN(c2ccc(-c3cccc(C(=O)N[C@@H](c4cc5ccccc5[nH]4)c4cc(F)ccc4O)c3)cc2)CC1` [Example 2, (R)-4′-(4-acetylpiperazine-1-yl)-N-((5-fluoro-2-hydroxyphenyl)(1H-indole-2-yl)methyl)-[1,1′-biphenyl]-3-carboxamide]: in assay [3], the pIC50 was 7.21. This pIC50 and that of the compound before are within 0.2 log units of each other.

`CN(C)C1CCN(c2ccc(-c3cccc(C(=O)N[C@@H](c4cc5ccccc5[nH]4)c4cc(F)ccc4O)c3)cc2)CC1` [Example 7, (R)-4′-(4-(dimethylamino)piperidine-1-yl)-N-((5-fluoro-2-hydroxyphenyl)(1H-indole-2-yl)methyl)-[1,1′-biphenyl]-3-carboxamide]: in assay [3], the pIC50 was 6.80. Against the preceding compound, the pIC50 is 0.41 log units lower.

As for `N[C@H]1CCN(c2ccc(-c3cccc(C(=O)N[C@@H](c4cc5ccccc5[nH]4)c4cc(F)ccc4O)c3)cc2)C1` [Example 12, 4′-((S)-3-aminopyrrolidine-1-yl)-N—((R)-(5-fluoro-2-hydroxyphenyl)(1H-indole-2-yl)methyl)-[1,1′-biphenyl]-3-carboxamide], the pIC50 in assay [3] is 6.74. The pIC50 values of the last two compounds are within 0.2 log units of each other.

Turning to `NC1CCN(c2ccc(-c3cccc(C(=O)N[C@@H](c4cc5ccccc5[nH]4)c4cc(Cl)ccc4O)c3)cc2)CC1` [Example 4, (R)-4′-(4-aminopiperidine-1-yl)-N-((5-chloro-2-hydroxyphenyl)(1H-indole-2-yl)methyl)-[1,1′-biphenyl]-3-carboxamide], the pIC50 in assay [3] is 6.19.

In assay [3], `N[C@@H]1CCN(c2ccc(-c3cccc(C(=O)N[C@@H](c4cc5ccccc5[nH]4)c4cc(F)ccc4O)c3)cc2)C1` [Example 11, 4′-((R)-3-aminopyrrolidine-1-yl)-N—((R)-(5-fluoro-2-hydroxyphenyl)(1H-indole-2-yl)methyl)-[1,1′-biphenyl]-3-carboxamide] showed a pIC50 of 6.80.

In assay [3], `O=C(N[C@@H](c1cc2ccccc2[nH]1)c1cc(F)ccc1O)c1cccc(-c2ccc(N3CCC(N4CCNCC4)CC3)cc2)c1` [Example 6, (R)—N-((5-fluoro-2-hydroxyphenyl)(1H-indole-2-yl)methyl)-4′-(4-(piperazine-1-yl)piperidine-1-yl)-[1,1′-biphenyl]-3-carboxamide] had a pIC50 of 6.72. This pIC50 and that of the compound before are within 0.2 log units of each other.

Turning to `CN1CCC(N2CCN(c3ccc(-c4cccc(C(=O)N[C@@H](c5cc6ccccc6[nH]5)c5cc(F)ccc5O)c4)cc3)CC2)CC1` [Example 9, (R)—N-((5-fluoro-2-hydroxyphenyl)(1H-indole-2-yl)methyl)-4′-(4-(1-methylpiperidine-4-yl)piperazine-1-yl)-[1,1′-biphenyl]-3-carboxamide], the pIC50 in assay [3] is 7.14.

As to `O=C(N[C@@H](c1cc2ccccc2[nH]1)c1cc(F)ccc1O)c1cccc(-c2ccc(N3CCCC3)cc2)c1` [Example 10, (R)—N-((5-fluoro-2-hydroxyphenyl)(1H-indole-2-yl)methyl)-4′-(pyrrolidine-1-yl)-[1,1′-biphenyl]-3-carboxamide], in assay [3], the pIC50 was 5.23.

In assay [3], `CN1CCN(C2CCN(c3ccc(-c4cccc(C(=O)N[C@@H](c5cc6ccccc6[nH]5)c5cc(F)ccc5O)c4)cc3)CC2)CC1` [Example 5, (R)—N-((5-fluoro-2-hydroxyphenyl)(1H-indole-2-yl)methyl)-4′-(4-(4-methylpiperazine-1-yl)piperidine-1-yl)-[1,1′-biphenyl]-3-carboxamide] showed a pIC50 of 5.59. Against the preceding compound, the pIC50 is 0.36 log units higher.

On to `N[C@H]1CCN(c2ccc(-c3cccc(C(=O)N[C@@H](c4cc5ccccc5[nH]4)c4cc(Cl)ccc4O)c3)cc2)C1` [Example 13, 4′-((S)-3-aminopyrrolidine-1-yl)-N—((R)-(5-chloro-2-hydroxyphenyl)(1H-indole-2-yl)methyl)-[1,1′-biphenyl]-3-carboxamide], for which the pIC50 in assay [3] was less than 5.00.
